Tests used:
Neisseria gonorrhoeae [1] = assay: Two-step nuc-aAST on Ng clinical urine samples and their isolates, TNP enhancer (Examples 35, 37); format: cell-based; details: antibiotic-resistant samples and isolates (Sample #3, #4); 1 μg/mL 30 min, then TNP 3-5 min, DNaseI
Method: Clinical sample nuc-aAST. Suspensions of clinical urine samples were prepared as described above. All suspensions were generated, and the ABX-exposure step initiated within 90 min of sample donation. The initial ABX-exposure was performed by incubating 50 μL control and treated samples at 37° C. in PCR tube strips on a BioRad C1000 Thermal Cycler. Treated samples consisted of […] of suspension and 1.25 μL aliquot of PEN or CRO (40 μg/mL). ABX were replaced with NF—H2O in control samples. After 30 min of incubation, samples were vortexed and quickly spun on a benchtop microcentrifuge (Labnet) at 2,000×g for 2-3 sec, and 2.7 μL TNP (100 mM) was added to each sample for the enhancement step. Samples were then immediately vortexed, spun on a benchtop microcentrifuge (Labnet) at 2,000×g for 2-3 sec, and incubated at 37° C. for 3-5 min. After the enhancement step, 20 μL from each sample was extracted by diluting 5× in QuickExtract DNA Extraction Solution (Lucigen) and heating for 6 min at 65° C. followed by 4 min at 98° C. on a BioRad C1000 Thermal Cycler. All sample handling following ABX exposure was performed using a multichannel pipette; qPCR and calculation of percentage accessibility were performed as previously described, with the modification that the qPCR mix included 2 μL of template per 10 μL PCR reaction instead of 1 μL template per 10 μL reaction. […]

Neisseria gonorrhoeae [2] = assay: AST by inaccessible DNA without enhancing treatment, static incubation time course, qPCR (Example 7); format: cell-based; details: penicillin-susceptible isolate ng_15; 1 μg/mL PEN; MHB; DNaseI secondary step
Method: Antibiotic susceptibility test was performed with methods herein described relying on b-lactam-induced cellular lysis, or cell-wall damage, to generate differences in DNA accessibility between the unexposed and exposed tubes. No enhancing treatment is performed in this example. In this example DNaseI is used to degrade the DNA made accessible by beta-lactam induced damage over incubation times larger than what is tested in examples 1-6 (incubation times >30 minutes)
The layout of this experiment is illustrated in FIG. 14 according to which a penicillin-susceptible isolate is incubated with penicillin for 15 min-6 hours. At each time point, DNaseI will be added to degrade the accessible DNA, then the DNaseI will be inactivated simultaneously with the lysis of the remaining cells. The quantified nucleic acids represent those from the cells with inaccessible DNA throughout the antibiotic exposure and incubation with DNaseI.
The treated and untreated samples were incubated at 37° C. for 15 minutes, Ihr, 2 hr, 3 hr, 4 hr, 5 hr, 6 hr. At each time point, bring the culture tubes into the BSC and incubate an aliquot of the contents with DNaseI to degrade the accessible DNA. • 8. secondary incubation of treated and untreated samples to degrade accessible DNA […]

Ng isolates = assay: nuc-aAST time-course without enhancing step (Example 32); format: cell-based, Neisseria gonorrhoeae; details: two PEN-S and two PEN-R Ng isolates; DNase I present; no enhancing step
Method: nuc-aAST time-course without enhancing step. Working cultures of Ng isolates were prepared as described in “Ng culture preparation.” Incubation at 37° C. was performed in 100 μL reaction volumes in PCR tube strips on a BioRad C1000 Thermal Cycler. Treated samples consisted of 77.5 μL MHB, 2.5 μL NaHCO3 (200 mM), 5 μL DNase I (2 U/μL), 5 μL PEN (20 μg/mL), and 10 μL working Ng isolate culture. PEN was replaced with NF—H2O in control samples. A 10 μL aliquot of each sample was extracted at 15, 30, 45, 60, 90, and 120 min and diluted 10× in QuickExtract DNA Extraction Solution (Lucigen, Middleton, WI, USA), then heated for 6 min at 65° C. followed by 4 min at 98° C. on a BioRad C1000 Thermal Cycler. All sample handling following antibiotic exposure was performed using a multichannel pipette; qPCR and calculation of % accessibility were performed as described above.
β-lactams should primarily affect peptidoglycan, and should not have a major impact on the outer membrane, which serves as a structural element in Gram-negative bacteria. Therefore, it is expected the primary mechanism behind any increase in accessibility to be cell lysis as a result of exposure to β-lactams, leading to release of genomic DNA to the extracellular environment containing DNase. […]

**Q.** Which results are given for penicillin?
**A.** mean percentage accessibility of DNA (Neisseria gonorrhoeae [1]): < 46%; antibiotic exposure time needed for a detectable CT ratio without enhancer (Neisseria gonorrhoeae [2]): ≥ 3 h; exposure time at which percentage accessibility differed significantly between susceptible and resistant isolates (Ng isolates): 90 min

From patent US12448655B2, “Antibiotic susceptibility of microorganisms and related methods and systems” (CALIFORNIA INSTITUTE OF TECHNOLOGY, priority 2017, dated 2025)
